Assay results: patent publication US20110150774A1, “SCREENING FOR MODULATORS OF CES1 AND/OR CES3 FOR THE TREATMENT OF ACNE, OF SEBORRHOEIC DERMATITIS OR OF HYPERSEBORRHOEA” (GALDERMA RESEARCH & DEVELOPMENT, priority 2008, published 2011)

Tests used:
Type in all cases: in vivo
CES3 [1] = test: CES3 gene expression in rat sebaceous gland (epidermal split) after topical PPARgamma agonist, real-time PCR; settings: topical 1% in acetone, female FUZZY rat, mRNA standardized to 18S, versus carrier group; for CES3 Relative induction - kinetics (hours): 0: 0 hours; for CES3 Relative induction - kinetics (hours): 8: 8 hours; for CES3 Relative induction - kinetics (hours): 24: 24 hours; for CES3 Relative induction - kinetics (hours): 48: 48 hours; for CES3 Relative induction - kinetics (hours): 96: 96 hours
Source text: (§1) Materials and methods: • Animals: Species: rat • Strain: Ico:Hsd FUZZY-fz • Gender: female • Age: 10 weeks • Number per batch: 40 (8 animals per group) • Treatment: Route of administration: topical • Compound/batch: PPARgamma agonists: • A: 5-{4-[2-(methylpyridin-2-ylamino)ethoxy]benzyl}thiazolidine-2,4-dione • B: 2-(methoxyethoxymethoxy)naphthalene-2-carboxylic acid [4′-(2,4-dioxothiazolidin-5-ylmethyl)biphenyl-3-ylmethyl]methylamide […] • C: (S)-2-ethoxy-3-{4-[6-(3-heptyl-1-methylureido)pyridin-2-yl]phenyl}propionic acid • Doses: 1% • Carrier: acetone (001) • Duration: 96 hours Method of evaluation: The animals are weighed at the beginning and at the end of the study. Skin biopsies are taken (6 samples of skin excised per rat) in order to analyze the expression of the genes (RNA extraction, reverse transcriptase and real-time PCR). The samples are stored at 4° C. overnight before incubation in 1 M sodium bromide (NaBr) for 2 hours at 37° C. After incubation, the samples are separated into epidermis or dermis. The epidermal samples are stored at […]. Under these conditions, the sebaceous glands are in the epidermal split. PCRs are carried out, beginning with the cDNAs originating from the epidermal splits containing sebaceous glands from control rats or rats treated with a PPARγ agonist: the mRNA is extracted using a column and quantified. The quality of the mRNAs is measured and is represented by the 18S/28S ratio. The results are standardized with respect to 18S, expressed as relative induction versus untreated animals (carrier group). The statistical analysis is obtained using internal software based on a modified Monte Carlo statistical analysis.

CES1 = CES1 gene expression in rat sebaceous gland (epidermal split) after topical PPARgamma agonist, real-time PCR; settings: topical 1% in acetone, female FUZZY rat, mRNA standardized to 18S, versus carrier group; for CES1 Relative induction - kinetics (hours): 0: 0 hours; for CES1 Relative induction - kinetics (hours): 8: 8 hours; for CES1 Relative induction - kinetics (hours): 24: 24 hours; for CES1 Relative induction - kinetics (hours): 48: 48 hours; for CES1 Relative induction - kinetics (hours): 96: 96 hours
Source text: as §1, with “Ico:HSd:FUZZY-fz” for “Ico:Hsd FUZZY-fz”

CES3 [2] = test: CES3 expression in Fuzzy rat epidermal split after 8 days of topical treatment, Affymetrix transcriptome analysis; settings: topical 1% once a day for 8 days, female FUZZY rat
Experimental: The studies are carried out in female Fuzzy rats (Hsd: FUZZY-fz) 10 weeks old at the beginning of the study. The animals are treated at a dose of 1% (PPARg agonist Rosiglitazone in solution in acetone) once a day for 8 days. Two hours after the final treatment, the animals are sacrificed by euthanasia and the skin on the back is removed. After incubation in […], the epidermis carrying the sebaceous glands is detached from the dermis (epidermal split). After grinding of the samples, the mRNA is prepared using Qiagen columns, in accordance with the suppliers' instructions. The material thus prepared is subjected to large-scale transcriptome analysis on an Affymetrix platform. The data are subsequently standardized and, after statistical analysis, the results produced are expressed in arbitrary expression units (see below) accompanied, for each piece of data, by a statistical value for presence of the transcript (presence=1; absence=0).

| SMILES | CES3 Relative induction - kinetics (hours): 0 (CES3 [1]) | CES3 Relative induction - kinetics (hours): 8 (CES3 [1]) | CES3 Relative induction - kinetics (hours): 24 (CES3 [1]) | CES3 Relative induction - kinetics (hours): 48 (CES3 [1]) | CES3 Relative induction - kinetics (hours): 96 (CES3 [1]) | CES1 Relative induction - kinetics (hours): 0 (CES1) | CES1 Relative induction - kinetics (hours): 8 (CES1) | CES1 Relative induction - kinetics (hours): 24 (CES1) | CES1 Relative induction - kinetics (hours): 48 (CES1) | CES1 Relative induction - kinetics (hours): 96 (CES1) | Significance of the expression after treatment with 1% Rosiglitazone (presence =1, absence =0) (CES3 [2]; control condition 1) | Expression after treatment with 1% Rosiglitazone (CES3, 1370363_at) (CES3 [2]; control condition 443) |
| --- | --- | --- | --- | --- | --- | --- | --- | --- | --- | --- | --- | --- |
| CCCCCCCNC(=O)N(C)c1cccc(-c2ccc(C[C@H](OCC)C(=O)O)cc2)n1 [C, (S)-2-ethoxy-3-{4-[6-(3-heptyl-1-methylureido)pyridin-2-yl]phenyl}propionic acid] | 1 | 0.33 | 0.12 | 0.02 | 0.00 | 1 | 0.55 | 0.38 | 0.04 | 0.03 |  |  |
| CN(CCOc1ccc(CC2SC(=O)NC2=O)cc1)c1ccccn1 (stereo not shown) [Rosiglitazone] |  |  |  |  |  |  |  |  |  |  | 0 | 15 arbitrary expression units |
| CN(CCOc1ccc(CC2SC(=O)NC2=O)cc1)c1ccccn1 (stereo not shown) [A, 5-{4-[2-(methylpyridin-2-ylamino)ethoxy]benzyl}thiazolidine-2,4-dione] | 1 | 1.72 | 0.46 | 0.22 | 0.07 | 1 | 1.93 | 1.01 | 0.45 | 0.13 |  |  |
